This is an account of results in patent US5214191A, “Oxidant sensitive and insensitive aromatic esters as inhibitors of human neutrophil elastase” (Cortech, Inc., priority 1990, dated 1993).

Converted amounts (≈) assume the structure as drawn. Like-named read-outs stand apart in the source and are kept apart here.

The target of series [1] is porcine pancreatic elastase (PPE) (Sus scrofa, UniProt P00772). In words: Specificity determination, porcine pancreatic elastase, N-succinyl-ala-ala-ala-pNA substrate. The following applies: ratio of I50's (PPE/HNE). In kind it is biochemical. From the text:
(§1) Representative compounds according to the invention have been compared with a compound (Compound A) typifying the compounds described in U.S. Pat. […] The comparisons were directed towards potency (represented by the I50 's for human neutrophil elastase (HNE), porcine pancreatic elastase (PPE) and alpha-chymotrypsin (α-CH)), specificity (represented by the ratios of the I50 's (PPE/HNE and α-CH/HNE)) and the ability to inhibit the digestion of extracellular matrix by activated intact human neutrophils (expressed as a fraction of control) of the compounds listed. The following results were obtained (TABLE IV): Specificity Determination Reagents: 1) Porcine Pancreatic Elastase (PPE) 1 mg/mL in 0.01M sodium acetate, pH 5.5. An aliquot of this stock solution is diluted 1:20 in 0.01M sodium acetate, 20% DMSO, 10 mM CaCl2, pH 5.5. 3) PPE substrate: N-succinyl-[…] 20 mM stock in DMSO. Inhibitor, substrate buffer: 0.1M tris-HCl, 0.01M CaCl2, 0.005% triton X-100, 20% DMSO, pH 7.7.

For series [2], the target named is alpha-chymotrypsin (α-CH) (Bos taurus, UniProt P00766). In words: Specificity determination, alpha-chymotrypsin, N-succinyl-ala-ala-pro-leu-pNA substrate. The following applies: ratio of I50's (α-CH/HNE). The class given is biochemical.
Source text: as §1, with “2) α-Chymotrypsin (α-CH)” for “1) Porcine Pancreatic Elastase (PPE)”, “1:85” for “1:20”, “5.5, 0.005% triton X-100 detergent. 4) α-CH” for “5.5. 3) PPE”

For series [3], the target named is T1, human neutrophil elastase (HNE) (Homo sapiens, UniProt P08246).
T1 sequence (P08246 30-267): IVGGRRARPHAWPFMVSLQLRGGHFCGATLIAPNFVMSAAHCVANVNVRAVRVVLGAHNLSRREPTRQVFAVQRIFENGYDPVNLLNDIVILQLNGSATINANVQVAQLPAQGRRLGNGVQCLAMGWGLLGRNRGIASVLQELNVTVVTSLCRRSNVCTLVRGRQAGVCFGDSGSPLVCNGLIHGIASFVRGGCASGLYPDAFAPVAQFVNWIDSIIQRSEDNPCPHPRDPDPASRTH
In words: Potency (I50 determination) against human neutrophil elastase, N-methoxysuccinyl-ala-ala-pro-val-pNA substrate. The following applies: for potency relative to Compound A: in words, versus Compound A (pivaloyl group). In kind it is biochemical. As to the method: Potency (I50 Determination)
A) 0.075M sodium phosphate, 20% dimethyl sulfoxide (DMSO), pH 7.7=substrateand inhibitor buffer
B) 0.075M sodium phosphate no DMSO, pH 7.7=inhibitor buffer
C) 10 mM human neutrophil elastase (HNE) substrate =N-methoxysuccinyl-ala-ala-pro-val-pNA in DMSO
D) 0.01M sodium acetate, 20% DMSO, pH 5.5=enzyme buffer (dilution)
E) 0.01M sodium acetate, pH 5.5=enzyme buffer (storage)
F) HNE (1 mg) dissolved in 1 mL of reagent E for storage at -20° C.
Make a 10 mM stock of the inhibitor in DMSO. Dilute an aliquot (10 μL) up to 1.0 mL in reagent A (100 μM). Serially dilute 100 μL of the 100 μM stock to 10.0, 1.0, 0.1, 0.01 μM in reagent A. Apply 100 μL of the diluted material to the wells of a 96-well plate. Dilute an aliquot of reagent F 1:150 in reagent D, apply 50 μL aliquots to the indicated wells and incubate for 7 minutes at room temperature.
The HNE substrate solution is made by taking 100 μL of reagent C into 500 μL of reagent A and 400 μL of reagent B. After the 7 minutes of incubation, the substrate (50 μL) is applied to each well. The HNE catalyzed reaction is then monitored spectrophotometrically at 405 nm using an ELISA plate reader machine (UVMAX, Molecular Devices) which processes the raw data with an on-board kinetics program. The enzyme activity is plotted against different inhibitor concentrations and the I50 value is determined by using a curve fitting software program. Once the "screening" I50 has been approximated, a more precise I50 value can be obtained by examination of inhibitor concentrations around this value.

The nature of another series: PBS solubility. The class given is physicochemical. The following applies: aqueous buffer.
Where [4] appears, read: Table IV, human neutrophil elastase, read-out: HNE I50.
Where [5] appears, read: Table III, series with varied R4, read-out: I50.

porcine pancreatic elastase (PPE), sequence (P00772 27-266): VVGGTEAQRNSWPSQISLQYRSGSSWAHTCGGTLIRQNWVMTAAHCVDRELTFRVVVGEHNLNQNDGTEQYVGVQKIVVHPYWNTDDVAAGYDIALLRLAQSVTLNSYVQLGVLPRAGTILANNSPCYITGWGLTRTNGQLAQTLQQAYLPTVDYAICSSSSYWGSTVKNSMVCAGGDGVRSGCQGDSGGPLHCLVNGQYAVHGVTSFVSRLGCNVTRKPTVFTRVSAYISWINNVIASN

Regarding `CCC(C(=O)Oc1ccc(S(C)(=O)=O)cc1)c1ccccc1` (stereo not drawn) [Compound 3], the “PPE (I50)/HNE (I50)” value in series [1] stood at 129.6. In series [2], the “α-Chymotrypsin (I50)/HNE(I50)” value is on record as 176.0. Also, the IC50 in series [3] (setting [4]) was 25 nM. For the same compound, the “potency relative to Compound A” value in series [3] is on record as “improve potency relative to a compound bearing a simple pivaloyl group”.

On to `CCC(C(=O)Oc1ccc(S(C)(=O)=O)cc1)c1ccc(OC)cc1` (stereo not drawn) [Compound 37, 4-Methylsulfonylphenyl 2-(4'-Methoxyphenyl)butyrate], for which the “PPE (I50)/HNE (I50)” value in series [1] is 38.6. For the same compound, the “α-Chymotrypsin (I50)/HNE(I50)” value in series [2] is 106.2. In addition, the IC50 in series [3] (setting [4]) stood at 31 nM. Moreover, the “potency relative to Compound A” value in series [3] was “improve potency relative to a compound bearing a simple pivaloyl group”.

In the case of `CCC(C(=O)Oc1ccc(S(C)(=O)=O)cc1)c1ccc2cc(OC)ccc2c1` (stereo not drawn) [Compound 384], the “PPE (I50)/HNE (I50)” value in series [1] amounted to 29.1. The “α-Chymotrypsin (I50)/HNE(I50)” value in series [2] was 131.8. Also, the IC50 in series [3] (setting [4]) was 55 nM. The “potency relative to Compound A” value in series [3] is recorded as “improve potency relative to a compound bearing a simple pivaloyl group”.

As to `CC(C)(C)C(=O)Oc1ccc(S(C)(=O)=O)cc1` [Compound A, reference compound], in series [1], the “PPE (I50)/HNE (I50)” value is reported as 18.84. For the same compound, the “α-Chymotrypsin (I50)/HNE(I50)” value in series [2] came out at 146.10. In series [3] (setting [4]), the IC50 stood at 129 nM.

As a reminder, the solubility is the concentration that dissolves in the medium under given conditions. Consider `CCC(C(=O)Oc1ccc(S(=O)(=O)CC(C)(C)C(=O)O)cc1)c1ccccc1` (stereo not drawn) [S(O2)CH2 C(CH3)2 CO2 H], for which the solubility in the series “PBS solubility” was at least 2000 µg/mL. Moreover, in series [3] (setting [5]), the IC50 was determined as 141 nM.

In the case of `CCC(C(=O)Oc1ccc(S(C)(=O)=O)cc1)c1ccccc1` (stereo not drawn) [S(O)2 CH3], the solubility in “PBS solubility” came out at 10 µg/mL (≈ 31.4 µM). In series [3] (setting [5]), the IC50 came to 100 nM.

`CCC(C(=O)Oc1ccc([S+]([O-])CC(C)(C)C(=O)O)cc1)c1ccccc1` (stereo not drawn) [S(O)CH2 C(CH3)2 CO2 H] yielded a solubility in “PBS solubility” of at least 2000 µg/mL. Also, the IC50 in series [3] (setting [5]) stood at 357 nM.

`CCC(C(=O)Oc1ccc([S+](C)[O-])cc1)c1ccccc1` (stereo not drawn) [S(O)CH3] showed a solubility in the series “PBS solubility” of 600 µg/mL (≈ 1980 µM). Also, the IC50 in series [3] (setting [5]) was 600 nM.

In turn, `CCC(C(=O)Oc1ccc(SCC(C)(C)C(=O)O)cc1)c1ccccc1` (stereo not drawn) [SCH2 C(CH3)2 CO2 H] showed a solubility in “PBS solubility” of at least 2000 µg/mL. Further, in series [3] (setting [5]), the IC50 is 892 nM.

Turning to `CCC(C(=O)Oc1ccc(SC)cc1)c1ccccc1` (stereo not drawn) [SCH3], the solubility in the series “PBS solubility” came to 10 µg/mL (≈ 34.9 µM). Also, in series [3] (setting [5]), the IC50 came to 9000 nM.
